Like-named read-outs stand apart in the source and are kept apart here.
Legend:
[1] = spontaneous horizontal motor activity of mice (LABORAS); type: in vivo; conditions: 12-hour light phase, C57B16J mice
Description: NMDA receptor antagonists are known to cause dose-dependent behavioral activation in rodents, which is manifested in increased locomotor activity (Sukhanov et al. Behav. Pharmacol. 15:263-271 2004). This behavior may correspond to side effects observed in the clinical practice, such as agitation and restlessness, which are rarely seen with memantine. We have studied the modulating effect of baclofen on the locomotor activity increasing effect of memantine when administered to mice in combination. Groups of male C57B16J mice (25-32 g; Wobe-Harlan, Hungary; 8-10 mice/group) were treated orally with 2 mg/kg baclofen, 2.5 mg/kg memantine or their combination or vehicle (distilled water) twice daily during the light phase of diurnal light-dark cycle. After one day of habituation, the activity of the animals was recorded continuously for 24 hours on the first and 14th day of treatment using an automated behavioral activity measurement system (LABORAS, Metris, Netherlands). However, only the data from the light phase (12 hours) are shown. The animals were housed individually during the whole experiment in their home cages, which enabled the activity recording as well. The mechanical vibrations and gravity related static signals evoked by the movement of the animals were transformed to an electrical signal by the system, and these recorded signals were evaluated off-line by a computer algorithm (Quinn et al. J. Neurosci. Methods 130:83-92 2003). The behavior of the mice was categorized by the software as locomotor activity, immobility, climbing and grooming. […] Statistical analysis was performed using ANOVA followed by Tukey's post hoc test. The statistical significance of effects of drug treatments was calculated compared to vehicle and also compared to other drug-treated groups.

[2] = targeted dose 60 mg/day, within 10 weeks, binge eating patients; cited from earlier work
[3] = rotarod test in mice; conditions: male, NMRI, mouse, in vivo, po
Description: The rotarod test is a widely used simple and objective method to detect the side effects affecting motor function in rodents. This method is also capable for sensitive detection of a central muscle relaxant effect, which is a pharmacological feature of both memantine and baclofen (Farkas et al. J. Pharmacol. Toxicol. Methods 52:264-273 2005). However, other CNS side effects (e.g. sleepiness, disturbances in coordination) also impair rotarod performance. Therefore this method was used to assess liability of the combination memantine and baclofen to produce unwanted side effects.
Mice were placed on a rod rotating with a constant speed of 12 rpm. After training, i.e. after habituation to the rotarod three times for 120 seconds on the previous day, the mice are usually able to run on the rod for 120 seconds without falling down. Immediately before the treatment with the test compounds, the mice were tested and only those able to stay on the rod for 120 seconds were involved to the experiment. Test compounds were dissolved in distilled water (vehicle) and administered orally to groups of ten male NMRI mice (20-24 g). One group was treated with vehicle in each experimental session. […] We calculated the mean latency to fall in each group and the percent change relative to the latency in the vehicle group. […]

[4] = 30 mg/day, 12 weeks, cited from earlier work
[5] = mouse diet-induced obesity (DIO) test, weight loss; type: in vivo; conditions: two weeks, obese C57B16 mice
Method: The experiments were performed using a diet-induced obesity (DIO) test. The DIO test is a widely accepted animal model of human obesity well mimicking the development and course of the disease, its comorbidities as well as its response to pharmacological medications (Hariri and Thibault Nutr. Res. Rev. 23:270-299 2010). Young (22-25 g) male C57B16 mice were fed with high-fat diet (e.g. D12492, Research Diets Inc., New Brunswick, N.J., USA), thus these animals became obese compared to mice kept on a control diet. The body weights of control and obese mice were 31.84±0.89 and 45.74±0.78 g, respectively, in the first experiment (n=8 per group, mean±SEM). These values were 30.47±0.58 and 45.38±0.61 g (n=20 per group) in the second experiment, and 27.61±0.34 and 41.00±0.91 (n=8 per group) in the third experiment (Study 2). Then the animals were assigned to different groups and treated with different vehicles or test compounds. Test compounds were dissolved in water and administered per os twice daily in a volume of 10 ml/kg of body weight. The animals were weighed daily during the experiments. The percent weight loss of each animal compared the baseline body weight was calculated at the end of the two-week-long experiment. The average percent weight change of the vehicle group was subtracted from the percent weight change of each animal, thus the vehicle-corrected weight loss was calculated. The statistical evaluation of results included descriptive statistics (mean and standard error). Furthermore, statistical significance of differences between groups was evaluated using one-way or factorial ANOVA test followed by Duncan's post-hoc test. Interactions between different treatments (i.e. combination of drugs) were evaluated using factorial ANOVA test.
Baclofen caused a body weight loss of 3.2%, which was statistically non-significant. […] The doses shown in FIG. 1 were administered per os twice daily. The results are shown as mean±SE of percent vehicle-corrected weight loss. There were no statistical differences between the other three groups. (Number of animals: n=8 per group, except the memantine group, where n=7.)
We have also tested the combination of phentermine and baclofen. In the study investigating the effects of 2.5 mg/kg phentermine and 2 mg/kg baclofen, both drugs decreased the body weight moderately (by 5.4% and 3.6%, respectively). […] There was no significant difference between the groups (including the vehicle group as well). […] Data in FIG. 3 are presented as mean±SE of percent vehicle-corrected weight loss.

[6] = cited from earlier work
[7] = recommended dosing regimen; cited from earlier work
[8] = dose gradually increased to 20 mg/day, 16 obese binge eater patients; cited from earlier work

NCC(CC(=O)O)c1ccc(Cl)cc1 (racemic) [baclofen]
horizontal motor activity vs vehicle ([1]; 2 mg/kg baclofen orally twice daily, 14th day of treatment): neither baclofen alone, nor the combination altered the motor activity
horizontal motor activity vs vehicle ([1]; 2 mg/kg baclofen orally twice daily, first day of treatment): neither baclofen alone, nor the combination altered the motor activity
mean body weight increase [2]: 0.9 kg
ED50 at 60 min [3]: 18.3 ± 3.3 mg/kg
mean body weight loss ([4]; 10 obese patients): 1.7%
participants (out of 10) who lost more than 5% body weight [4]: one
vehicle-corrected body weight loss ([5]; Study 1, first experiment, 2 mg/kg baclofen per os twice daily): 3.2%
vehicle-corrected body weight loss ([5]; Study 2, 2 mg/kg baclofen per os twice daily): 3.6%

C[C@H]1CNCCc2ccc(Cl)cc21 [lorcaserin]
weight loss relative to baseline ([6]; after 1-year-long treatment): 5.8%
weight loss relative to baseline ([6]; at 12 weeks): 3.5-4%

CC12CC3CC(C)(C1)CC(N)(C3)C2 [memantine]
horizontal motor activity vs vehicle ([1]; 2.5 mg/kg memantine orally twice daily, 14th day of treatment): statistically significantly (p<0.05) increased
horizontal motor activity vs vehicle ([1]; 2.5 mg/kg memantine orally twice daily, first day of treatment): did not reach statistical significance
ED50 at 60 min [3]: 16.1 ± 1.7 mg/kg
side effect rate: dizziness [7]: 0.8%
side effect rate: nausea [7]: 0.9%
side effect rate: restlessness [7]: 1.3%
side effect rate: tiredness [7]: 0.4%
effect on binge episodes and body weight [8]: decreased the number of binge episodes but not the body weight
vehicle-corrected body weight loss ([5]; Study 1, first experiment, 2.5 mg/kg memantine per os twice daily): 0.1%

CC(C)(N)Cc1ccccc1 [phentermine]
vehicle-corrected body weight loss ([5]; Study 2, 2.5 mg/kg phentermine per os twice daily): 5.4%

From patent publication US20140316007A1 (RICHTER GEDEON NYRT., priority 2011, published 2014)
